Source: patent publication US7763580B2, “Methods for treating conditions associated with the accumulation of excess extracellular matrix” (University of Utah Research Foundation, priority 1999, dated 2010)

Tests used:
anti-Thy 1 model = settings: monotherapy, anti-Thy 1 model (Peters et al.); L-arginine 1% in drinking water; cited from earlier work
[1] = test system: adult human mesangial cells; assay: Renin-induced TGFβ and fibronectin production by adult human mesangial cells (ELISA); format: cell-based; settings: for renin-induced increase in TGFβ production: 10^−5 M inhibitor added at zero time with 10^−7 M human recombinant renin, adult cells, FIG. 7
Protocol: Primary cultures of adult human mesangial cells were grown from human nephrectomy tissues using standard methods. Cells were passaged 4-7 times and then plated (3,000 cell/cm^2) in 12 well plates in 2 ml of medium (Mesangial Basal Medium (Clonetics Corp.) containing 5% FCS, 10 μg/ml penicillin and 100 μg/ml streptomycin) and allowed to grow to 70% confluency for 48 hours at 37EC, 5% CO2. Cultures were washed three times using sterile phosphate buffered saline at room temperature and then 2 ml/well of serum free MBM medium to induce quiescence. After 48 hours, the serum-free medium was removed and 2 ml/well of fresh serum-free medium was added for 24 hours. Human recombinant renin (HrRenin, Hoffman-La Roche Ltd., Basel, Switzerland) in concentrations from 10^−6 to 10^−12 M was added to each well for 24 hours. A blank (no HrRenin) was used as a control. Cells and supernatants were harvested by centrifugation after 24 hrs of culture and frozen at ^−70EC until analysis.
The total production and release of TGFβ into the culture supernatant was measured using an ELISA kit (R & D Systems). Induction of the matrix protein fibronectin (Fn) in the supernatant was measured using anti-fibronectin antibodies in an ELISA to provide further confirmation of induction of TGFβ. Renin-induced induction of TGFβ, fibronectin and PAI-1 mRNA were measured over time using semi-quantitative RT-PCR in a multiplex system where multiple cDNAs are amplified simultaneously according to Dostal et al., Anal. Biochem. 223:239-250 (1994), incorporated by reference herein Determinations were done in triplicate mesangial cell cultures.
(§1) Renin inhibitor Ro42-5892 (Hoffman-LaRoche, Basel, Switzerland), Losartan™ (Merck Pharmaceuticals, West Point, Pa.), Enalapril™ (Sigma Chemical Co., St. Louis, Mo., Prod. No. E6888), or TGFβ1 neutralizing antibody (R & D Systems) were added in the amounts indicated below to separate wells in triplicate to block the renin cascade at different sites after stimulation by renin: • 10^−5 M Renin Inhibitor R042-5892 (Hoffman-LaRoche) • 10^−5 M Enalapril™ (Sigma Chemical Co., St. Louis, Mo.) • 10^−5 M Losartan™ (Merck Pharmaceuticals, West Point, Pa.) • Controls included neutralizing antibody to TGFβ (ATG) and control IgG (TgG)
(§2) These inhibitors were added at zero time with 10^−7 M human recombinant renin (Hoffman-LaRoche).

[2] = test system: Normal fetal human mesangial cells; assay: Renin-induced TGFβ production by fetal human mesangial cells (ELISA); format: cell-based; settings: for renin-induced increase in TGFβ production: 10^−5 M inhibitor added at zero time with 10^−7 M human recombinant renin, FIG. 3
Protocol: Normal fetal human mesangial cells (Clonetics Corp., Clonetics, Walkersville, Md.) passaged 5 to 8 times, were plated (3,000 cell/cm^2) in 12 well plates in 2 ml of medium (Mesangial Basal Medium (Clonetics Corp.) containing 5% FCS, 10 μg/ml penicillin and 100 μg/ml streptomycin) and allowed to grow to confluence for 48 hours at 37EC, 5% CO2. Cultures were washed three times using sterile phosphate buffered saline at room temperature and then 2 ml/well of serum free MBM medium to induce quiescence. After 48 hours, the serum-free medium was removed and 2 ml/well of fresh serum-free medium was added. Human recombinant renin (Hoffman-La Roche Ltd., Basel, Switzerland) in concentrations from 10^−6 to 10^−12 M was added to each well. A blank and 5 ng/ml of TGFβ (R & D Systems, Minneapolis, Minn.) were used as controls. Cells and supernatants were harvested by centrifugation after 24 hrs of culture and frozen at ^−70EC until analysis. The total production and release of TGFβ into the culture supernatant was measured using an ELISA kit (R & D Systems). Induction of PAI-1 and fibronectin in the supernatant are also measured using anti-PAI-1 and anti-fibronectin antibodies in an ELISA to provide further confirmation of the inhibition of TGFβ. TGFβ, fibronectin and PAI-1 mRNA are measured using semi-quantitative RT-PCR.
as §1, with “(Hoffman-LaRoche) • 30 ng/ml Anti-TGFβ1 antibody (R & D Systems, #AB 101 NA) • 30 ng/ml Chicken IgG (control for anti-TGFβ1 antibody, R & D Systems, # AB 101 C) • 10^−5 M” for “(Hoffman-LaRoche) • 10^−5 M”, “Point, Pa.)” for “Point, Pa.) • Controls included neutralizing antibody to TGFβ (ATG) and control IgG (TgG)”
as §2

nephritic glomeruli = assay: Plasmin generation by isolated nephritic glomeruli after rtPA injection; format: in vivo, rats; settings: rtPA injected 10, 20 and 30 minutes before sacrifice; vs disease control
Protocol: rtPA was injected into nephritic rats 10, 20 and 30 minutes before sacrifice. At sacrifice, glomeruli were isolated and placed in culture with a chromogenic substrate for tPA.

anti-Thy-1 nephritis [3] = assay: Glomerular mRNA levels after rtPA in anti-Thy-1 nephritis; format: in vivo, Sprague-Dawley rats; settings: rtPA treated, day 6, FIG. 10
Protocol: (§3) Six Sprague-Dawley rats with were injected with phosphate buffered saline (PBS, as a control) and 18 rats were injected with 300 ug of mouse monoclonal OX7 antibody produced in the laboratory using commercially obtained hybridoma cells (American Type Culture Collecton (Rockville, Md., USA; Peters et al., Kidney Internatl. 54:1570-1580 (1998)) on day 1 to induce anti-Thy-1 nephritis. Injection of the anti rat-thymocyte antibody intravenously causes binding to an epitope in rat glomerular mesangial cells call Thy 1.1. The complement-mediated mesangial cell lysis that follows initiates a cascade of tissue injury, followed by a repair process that involves induction of TGFβ-driven production and deposition of ECM components. […] These alterations favor decreased plasmin generation which decreases matrix turnover and enhances matrix accumulation. Plasmin is the key to mesangial cell matrix turnover (Baricos et al, Kidney Int. 47:1037-1047 (1995)).
Three days after the initial injection, rtPA (Genentech, Inc., San Francisco, Calif.) in a formulation designed for rodent intravenous injection (GenBank E08757) or PBS was injected intravenously. Injections were repeated twice a day from day 3 to day 5. […] Glomerular staining for ECM matrix proteins (collagen type I and III, fibronection EDA+ and tenascin) and glomerular mRNA levels of TGFβ1, fibronectin and PAI-1 were evaluated at day 6. […]

anti-Thy-1 nephritis [4] = assay: Glomerular ECM staining after rtPA in anti-Thy-1 nephritis; format: in vivo, Sprague-Dawley rats
Protocol: as §3
Three days after the initial injection, rtPA (Genentech, Inc., San Francisco, Calif.) in a formulation designed for rodent intravenous injection (GenBank E08757) or PBS was injected intravenously. Injections were repeated twice a day from day 3 to day 5. RtPA was injected i.v. at a dose of 1 mg/kg BW (n'6). Controls received saline (n'6). Glomerular staining for ECM matrix proteins (collagen type I and III, fibronection EDA+ and tenascin) and glomerular mRNA levels of TGFβ1, fibronectin and PAI-1 were evaluated at day 6. Localization of rtPA in nephritic glomeruli and the effect of rtPA on glomerular plasmin were investigated. Rats were sacrificed at day 6 and kidney tissues excised, fixed in formalin and frozen for histological analysis.
Kidney tissue sections were stained for extracellular matrix using Periodic Acid Schiff (PAS) using standard procedures and were stained for specific relevant matrix proteins such as Collagen I, Collagen IV, Fibronectin EDA and tenascin using standard immunohistochemical staining procedures. Matrix proteins were scored by image analysis of 30 glomeruli per rat.

[5] = 10^−6M HrRenin, 24 hours, peak of dose response, p<0.05

For `N=C(N)NCCC[C@H](N)C(=O)O` [L-arginine], the “reduction of markers of fibrotic disease” value (anti-Thy 1 model) is given as “about 50%”.

For `CCCCc1nc(Cl)c(CO)n1Cc1ccc(-c2ccccc2-c2nn[nH]n2)cc1` [Losartan], the “renin-induced increase in TGFβ production” value (from here on “renin-induced increase”) [1] is listed as “does not reduce the renin-induced increase in TGFβ production”, the “reduction of markers of fibrotic disease” value (anti-Thy 1 model) is listed as “about 50%” and the “renin-induced increase” value [2] is listed as “does not reduce the renin-induced increase in TGFβ production”.

For `CC(C)(C)S(=O)(=O)C[C@@H](Cc1ccccc1)C(=O)N[C@@H](Cc1c[nH]cn1)C(=O)N[C@@H](CC1CCCCC1)[C@@H](O)[C@@H](O)C1CC1` [Ro 42-5892], the “renin-induced increase” value [1] was “does not reduce the renin-induced increase in TGFβ production” and the “renin-induced increase” value [2] was “does not reduce the renin-induced increase in TGFβ production”.

With “rtPA: recombinant tissue type plasminogen activator (Genentech)” the “Plasmin generation by nephritic glomeruli” value (nephritic glomeruli) was “significantly elevated”, the “Glomerular levels of TGFβ1, FN and PAI-1 mRNA” value (anti-Thy-1 nephritis [3]) was “unchanged” and the “percentage of the glomerular area with positive staining, fibronectin EDA+” value (anti-Thy-1 nephritis [4]; rtPA 1 mg/kg BW i.v. twice a day day 3 to 5, day 6, disease control 19±2, p<0.01) was 14±1%. The “percentage of the glomerular area with positive staining, type IV collagen” value (anti-Thy-1 nephritis [4]; rtPA 1 mg/kg BW i.v. twice a day day 3 to 5, day 6, disease control 27±2, p<0.01) was 23±1%, the “percentage of the glomerular area with positive staining, type I collagen” value (anti-Thy-1 nephritis [4]; rtPA 1 mg/kg BW i.v. twice a day day 3 to 5, day 6, disease control 33±1, p<0.001) was 21±3% and the “percentage of the glomerular area with positive staining, laminin” value (anti-Thy-1 nephritis [4]; rtPA 1 mg/kg BW i.v. twice a day day 3 to 5, day 6, disease control 35±2, p<0.001) was 25±2%. The “matrix accumulated in glomeruli” value (anti-Thy-1 nephritis [4]; tPA vs control, FIG. 8) was “overall decrease in matrix accumulated”.

B1: HrRenin: Human recombinant renin (Hoffman-La Roche) (protein, UniProt P00797 67-406, looked up)
Renin: LTLGNTTSSVILTNYMDTQYYGEIGIGTPPQTFKVVFDTGSSNVWVPSSKCSRLYTACVYHKLFDASDSSSYKHNGTELTLRYSTGTVSGFLSQDIITVGGITVTQMFGEVTEMPALPFMLAEFDGVVGMGFIEQAIGRVTPIFDNIISQGVLKEDVFSFYYNRDSENSQSLGGQIVLGGSDPQHYEGNFHYINLIKTGVWQIQMKGVSVGSSTLLCEDGCLALVDTGASYISGSTSSIEKLMEALGAKKRLFDYVVKCNEGPTLPDISFHLGGKEYTLTSADYVFQESYSSKKLCTLAIHAMDIPPPTGPTWALGATFIRKFYTEFDRRNNRIGFALAR
In the case of B1, the “increase in Fn production” value [1, 5] is reported as 1.4 fold, the “increase in TGFβ production” value [1, 5] is reported as 2 fold and the “TGFβ and Fn production, time course” value ([1]; 10^−7M HrRenin, 24 and 48 hours, p<0.03) is reported as “significant increases in TGFβ and Fn production at 24 and 48 hours”. For the same molecule, the “TGFβ production by cultured human mesangial cells” value ([2]; renin 10^−6 to 10^−12 M, 24 hrs, FIG. 2) was “increases the TGFβ production by cultured human mesangial cells in a dose-dependent manner”.
